Data as given in publication PMC6006285, “Specific stereochemistry of OP-1074 disrupts estrogen receptor alpha helix 12 and confers pure antiestrogenic activity” (Nature Communications, 2018).
Like-named read-outs stand apart in the source and are kept apart here.

Tests used:
[1] = test system: estrogen responsive reporter gene, ERE-tk109-Luc, in MCF-7 cells; assay: Inhibition of E2-stimulated transcription of ERE-tk109-Luc reporter gene in MCF-7 cells; assay type: cell-based; conditions: Homo sapiens
[2] = test system: MCF7/HER2/neu tumors
Method: MCF7/HER2/neu cells were grown in culture and implanted into 6–7 week athymic ovariectomized female nu/nu mice (Taconic Biosciences). To stimulate tumor growth, 0.18 mg estradiol 90 day release pellets (Innovative Research) were implanted along with cells. […] Tumor volume and bodyweight were measured twice weekly. At end of the study animals were euthanized, tumors resected and snap frozen in liquid nitrogen, and uteri were resected, weighed, and fixed in 10% formalin.

[3] = target: T1, B-isoform of the progesterone receptor (PR-B) (Homo sapiens, UniProt P06401); assay: PRE3X-TATA-Luc reporter in HeLa cells transfected with PR-B; assay type: cell-based; conditions: alone or + 500 nM MPA, 22 h
T1 construct: HeLa cells were transfected as above but also with plasmids for full length wild; expressed in transfected cells; host or cells: HeLa
T1 sequence (P06401 1-933): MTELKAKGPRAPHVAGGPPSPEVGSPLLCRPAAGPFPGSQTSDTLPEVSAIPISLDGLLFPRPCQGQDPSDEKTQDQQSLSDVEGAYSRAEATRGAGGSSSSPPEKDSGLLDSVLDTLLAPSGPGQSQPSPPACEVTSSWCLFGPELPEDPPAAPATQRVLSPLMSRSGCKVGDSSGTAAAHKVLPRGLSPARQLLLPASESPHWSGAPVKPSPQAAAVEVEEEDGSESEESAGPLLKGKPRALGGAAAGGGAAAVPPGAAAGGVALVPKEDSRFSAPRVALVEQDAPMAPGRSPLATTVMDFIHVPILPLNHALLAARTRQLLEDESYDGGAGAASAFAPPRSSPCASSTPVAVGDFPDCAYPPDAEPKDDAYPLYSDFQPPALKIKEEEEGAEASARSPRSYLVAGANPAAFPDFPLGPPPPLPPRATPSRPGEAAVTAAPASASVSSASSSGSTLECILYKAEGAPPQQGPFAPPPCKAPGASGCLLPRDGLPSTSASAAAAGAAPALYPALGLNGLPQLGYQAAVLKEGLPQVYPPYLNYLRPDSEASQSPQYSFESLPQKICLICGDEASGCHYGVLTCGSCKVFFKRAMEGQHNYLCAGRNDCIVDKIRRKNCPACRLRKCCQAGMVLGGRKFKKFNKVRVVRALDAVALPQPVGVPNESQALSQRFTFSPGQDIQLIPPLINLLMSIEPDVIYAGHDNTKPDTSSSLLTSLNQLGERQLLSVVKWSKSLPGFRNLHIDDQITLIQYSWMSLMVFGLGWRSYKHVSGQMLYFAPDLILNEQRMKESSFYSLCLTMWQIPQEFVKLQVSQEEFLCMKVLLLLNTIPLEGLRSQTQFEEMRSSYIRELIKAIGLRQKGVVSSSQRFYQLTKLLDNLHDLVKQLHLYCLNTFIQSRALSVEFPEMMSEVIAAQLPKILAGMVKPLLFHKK
Method: representative experiment. […]
receptor (AR, (B)), glucocorticoid receptor (GR, (C)), and the B-isoform of the progesterone receptor (PR-B, (D)). HeLa cells were transfected with the designated wild type receptor along with reporter gene PRE3X-TATA-Luc, which is promiscuously activated with known agonists specific for each receptor: R1881 for AR, dexamethasone (Dex) for GR, and medroxyprogesterone acetate (MPA) for PR-B. Each receptor was also dosed with one concentration of known antagonist for each receptor: 32 nM bicalutamide for AR, and 500 nM RU486 for GR and PR. Transfected cells were treated with the designated ligands for 22 hours and luciferase activity assayed. Shown are representative experiments, independently performed at least 3 times. Note that curves for agonists for each receptor were performed in separate experiments. Shown are means with SEM, normalized to percent of 32 nM R1881 for AR, 32 nM Dex for GR, and 0.5 µM MPA for PR-B (except with MPA alone, which was normalized to […]
either ERα or ERβ, and 85 ng ERE-3x-Luc, containing 3 copies of estrogen-response element (ERE) cloned into pGL4.23 luciferase reporter gene containing a minimal TATA promoter […]
hours (1.25% total final charcoal dextran stripped FBS). Bright Glo luciferase reagent (Promega) […]

[4] = test system: uterus of ovariectomized BALB/c mice; assay: Uterine wet weight (uterotrophic assay) in ovariectomized BALB/c mice; assay type: in vivo, mouse; conditions: 100 mg/kg oral gavage daily for 3 days
Text: Shown is a representative figure analyzed and presented as above.
To confirm that OP-1074 lacks agonist activity in the uterus, we tested it in ovariectomized BALB/c mice in a uterotrophic assay. […] Thus, OP-1074 is a pure antiestrogen in the mouse uterus.
Animals were euthanized and uteri dissected and weighed.

[5] = number of 10 tumors at end of study, OP-1074 100 mg/kg oral twice daily, fulvestrant 100 mg/kg subcutaneous daily

SMILES: CC1=C(c2ccc(O)cc2)[C@H](c2ccc(OCCN3CC[C@@H](C)C3)cc2)Oc2cc(O)ccc21 [OP-1074]
- IC50 ([1]; MCF7, 22 h, read-out: IC50 inhibition of E2-stimulated transcription (Fig. 3a)): 3.2 nM
- IC50 ([1]; MCF7, 24 h, read-out: IC50 transcription): 1.8 ± 0.3 nM
- Tolerability ([2]; nude mice, 100 mg/kg dosed twice a day by oral gavage): well-tolerated with no adverse effects on behavior or mouse bodyweight
- Tumors shrunk / growth inhibited by >50% [2, 5]: all ten
- Tumors shrunk >80% [2, 5]: 9/10
- Agonist and antagonist activity on PR-B [3]: lacks agonist and antagonist activity
- Uterine wet weight, agonist mode ([4]; absence of E2, OP-1074 as mixture of active and inactive diastereomers): did not increase uterine wet weight
- Uterine wet weight, antagonist mode ([4]; co-treated with E2 subcutaneously): not significantly different from fulvestrant
